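96-well plates; 48 h exposure; 5 concentrations. Endpoints by linear interpolation between flanking doses. Not reached: highest tested concentration assigned. The concentration for 50% growth inhibition is given as GI50.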 Calls of active or inactive are those of the source. Cut-off read from the data, not from the text of the source: active = GI50 up to about 1.1 µM and inactive = higher.
What was measured:
Assay in all cases: inhibition of tumour cell growth, NCI panel, 48 h
NCI-H23 = test system: NCI-H23
HOP-62 = test system: HOP-62
NCI-H226 = test system: NCI-H226
MDA-MB-435 = test system: MDA-MB-435
UO-31 = test system: UO-31
TK-10 = test system: TK-10
OVCAR-3 = test system: OVCAR-3
SF-539 = test system: SF-539
RXF 393 = test system: RXF 393
MDA-MB-231 = test system: MDA-MB-231
KM12 = test system: KM12
K562 = test system: K562
NCI-H460 = test system: NCI-H460
HCT-116 = test system: HCT-116
ACHN = test system: ACHN
HCT-15 = test system: HCT-15
SNB-19 = test system: SNB-19
CCRF-CEM = test system: CCRF-CEM
SW-620 = test system: SW-620
M14 = test system: M14

SMILES	GI50 (NCI-H23)	GI50 (HOP-62)	GI50 (NCI-H226)	GI50 (MDA-MB-435)	GI50 (UO-31)	GI50 (TK-10)	GI50 (OVCAR-3)	GI50 (SF-539)	GI50 (RXF 393)	GI50 (MDA-MB-231)	GI50 (KM12)	GI50 (K562)	GI50 (NCI-H460)	GI50 (HCT-116)	GI50 (ACHN)	GI50 (HCT-15) [µM]	GI50 (SNB-19)	GI50 (CCRF-CEM)	GI50 (SW-620)	GI50 (M14)
Nc1ncnc2oc(C3OC(COC(=O)c4ccccc4)C(OC(=O)c4ccccc4)C3OC(=O)c3ccccc3)nc12 (stereo not given)	> 100 µM (inactive)	> 100 µM (inactive)	> 100 µM (inactive)	> 100 µM (inactive)	> 100 µM (inactive)	> 100 µM (inactive)	> 100 µM (inactive)	> 100 µM (inactive)	> 100 µM (inactive)	> 100 µM (inactive)	> 100 µM (inactive)	> 100 µM (inactive)	> 100 µM (inactive)	> 100 µM (inactive)	> 100 µM (inactive)	> 100	> 100 µM (inactive)	> 100 µM (inactive)	> 100 µM (inactive)	> 100 µM (inactive)
CC(=O)Nc1cc([As](=O)(O)O)ccc1O [ACETARSONE]	> 100 µM (inactive)	> 100 µM (inactive)	> 100 µM (inactive)	> 100 µM (inactive)	> 100 µM (inactive)	> 100 µM (inactive)	> 100 µM (inactive)	> 100 µM (inactive)	> 100 µM (inactive)	> 100 µM (inactive)	> 100 µM (inactive)	> 100 µM (inactive)	> 100 µM (inactive)	> 100 µM (inactive)	> 100 µM (inactive)	> 100	> 100 µM (inactive)	> 100 µM (inactive)	> 100 µM (inactive)	> 100 µM (inactive)
CCN(CC)CCNc1ccc2ncn3c4cc(OC)c(OC)c(O)c4c(=O)c1c23	2.69 µM (inactive)	11.4 µM (inactive)	12.3 µM (inactive)	10 µM (inactive)	12.3 µM (inactive)	13.8 µM (inactive)	13 µM (inactive)	9.06 µM (inactive)	1.36 µM (inactive)	5.93 µM (inactive)	7 µM (inactive)	5.89 µM (inactive)	1.39 µM (inactive)	0.556 µM (active)	3.76 µM (inactive)	9.91	7.59 µM (inactive)	0.897 µM (active)	1.4 µM (inactive)	14.2 µM (inactive)
C=C(C)[C@H]1[C@@H]2OC(=O)[C@H]1[C@]1(O)C[C@H]3OC34C(=O)O[C@H]2[C@@]41C.CC(C)(O)[C@H]1[C@@H]2OC(=O)[C@H]1[C@]1(O)C[C@H]3OC34C(=O)O[C@H]2[C@@]41C (stereo not given in full)	> 100 µM (inactive)	> 100 µM (inactive)	> 100 µM (inactive)	> 100 µM (inactive)	> 100 µM (inactive)	> 100 µM (inactive)	> 100 µM (inactive)	> 100 µM (inactive)	> 100 µM (inactive)	> 100 µM (inactive)	> 100 µM (inactive)	> 100 µM (inactive)	> 100 µM (inactive)	> 100 µM (inactive)	> 100 µM (inactive)	> 100	> 100 µM (inactive)	> 100 µM (inactive)	> 100 µM (inactive)	> 100 µM (inactive)
CCCCCC(C/C=N/N(C)C)C(O)(C(F)(F)F)C(F)(F)F (stereo not given)	25.2 µM (inactive)	42.3 µM (inactive)	41.5 µM (inactive)	31 µM (inactive)	36.2 µM (inactive)	54.2 µM (inactive)	9.31 µM (inactive)	35.2 µM (inactive)	32 µM (inactive)	27.5 µM (inactive)	36.3 µM (inactive)	22.5 µM (inactive)	36.4 µM (inactive)	32 µM (inactive)	24.4 µM (inactive)	49.8	37 µM (inactive)	17.1 µM (inactive)	38 µM (inactive)	38.7 µM (inactive)
N#Cc1nc(NC(=O)c2ccccc2)sc1N	> 10 µM (inactive)	> 10 µM (inactive)	> 10 µM (inactive)	> 10 µM (inactive)	> 10 µM (inactive)	> 10 µM (inactive)	> 10 µM (inactive)	> 10 µM (inactive)	> 10 µM (inactive)	> 10 µM (inactive)	> 10 µM (inactive)	> 10 µM (inactive)	> 10 µM (inactive)	> 10 µM (inactive)	> 10 µM (inactive)	> 10	> 10 µM (inactive)	4.54 µM (inactive)	> 10 µM (inactive)	> 10 µM (inactive)
COC1(OC)CCCc2c1no[n+]2[O-]	> 100 µM (inactive)	> 100 µM (inactive)	> 100 µM (inactive)	> 100 µM (inactive)	> 100 µM (inactive)	> 100 µM (inactive)	> 100 µM (inactive)	> 100 µM (inactive)	> 100 µM (inactive)	> 100 µM (inactive)	> 100 µM (inactive)	> 100 µM (inactive)	> 100 µM (inactive)	> 100 µM (inactive)	> 100 µM (inactive)	> 100	> 100 µM (inactive)	> 100 µM (inactive)	> 100 µM (inactive)	> 100 µM (inactive)

From ChEMBL document CHEMBL1201862, “PubChem BioAssay data set” (2004)
